pIC50: −log10 of the molar value.
Key:
[1] = biological target: T1, Amine oxidase [flavin-containing] B (Homo sapiens, UniProt P27338); assay: biochemical; format: cell-based
T1 sequence (P27338 whole entry): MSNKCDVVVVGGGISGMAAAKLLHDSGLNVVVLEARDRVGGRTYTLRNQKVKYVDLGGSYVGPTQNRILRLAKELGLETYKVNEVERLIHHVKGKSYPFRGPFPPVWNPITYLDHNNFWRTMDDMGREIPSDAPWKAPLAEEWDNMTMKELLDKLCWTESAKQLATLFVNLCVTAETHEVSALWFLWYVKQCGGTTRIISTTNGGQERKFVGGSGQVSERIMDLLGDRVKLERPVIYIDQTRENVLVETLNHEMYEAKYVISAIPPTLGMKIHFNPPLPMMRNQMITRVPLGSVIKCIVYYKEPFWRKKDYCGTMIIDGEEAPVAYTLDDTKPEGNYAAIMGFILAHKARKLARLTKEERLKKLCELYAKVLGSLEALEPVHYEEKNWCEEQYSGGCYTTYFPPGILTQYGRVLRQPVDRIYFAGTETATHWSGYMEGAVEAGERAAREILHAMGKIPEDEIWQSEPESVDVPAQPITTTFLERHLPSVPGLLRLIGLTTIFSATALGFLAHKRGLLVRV

[2] = biological target: T2, Amine oxidase [flavin-containing] A (Homo sapiens, UniProt P21397); assay: biochemical
T2 sequence (P21397 whole entry): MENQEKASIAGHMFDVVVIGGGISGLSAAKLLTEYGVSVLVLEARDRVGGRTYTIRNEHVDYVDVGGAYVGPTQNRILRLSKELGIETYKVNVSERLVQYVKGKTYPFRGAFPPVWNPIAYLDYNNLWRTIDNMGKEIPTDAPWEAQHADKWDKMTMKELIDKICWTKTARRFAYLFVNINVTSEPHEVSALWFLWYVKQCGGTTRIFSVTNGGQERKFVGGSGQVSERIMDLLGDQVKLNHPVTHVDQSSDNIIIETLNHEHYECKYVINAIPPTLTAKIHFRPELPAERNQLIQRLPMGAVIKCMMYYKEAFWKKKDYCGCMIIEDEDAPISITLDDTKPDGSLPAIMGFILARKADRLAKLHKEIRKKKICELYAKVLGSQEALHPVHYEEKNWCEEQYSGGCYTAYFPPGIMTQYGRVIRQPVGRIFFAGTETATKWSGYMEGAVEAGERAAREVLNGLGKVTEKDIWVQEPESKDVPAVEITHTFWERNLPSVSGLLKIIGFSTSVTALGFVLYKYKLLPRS

[3] = biological target: T2, Amine oxidase [flavin-containing] A; assay: Inhibition of human recombinant MAO-A expressed in baculovirus infected BT1 cells at 100 uM
[4] = biological target: T1, Amine oxidase [flavin-containing] B; assay: Inhibition of human recombinant MAO-B expressed in baculovirus infected BT1 cells at 1 mM; conditions: 1000 µM

pIC50 [1]	pIC50 [2]	inhibition (INH) [3]	inhibition (INH) [4]	Compound
6.76	6.50	–	–	CC(=O)N1N=C(c2ccc(OCC=C(C)C)cc2O)CC1c1ccc(OCc2ccccc2)cc1 (configuration not stated)
4.28	–	Not Active	–	CC(C)=CCOc1ccc(C2=NN(C(N)=S)C(c3ccccc3)C2)c(O)c1 (configuration not stated)
6.08	–	Not Active	–	CC(C)=CCOc1ccc(C2=NN(C(N)=S)C(c3ccc(Cl)cc3)C2)c(O)c1 (configuration not stated)
–	–	–	Not Active	O=C(NCCN1CCOCC1)c1ccc(Cl)cc1 [MOCLOBEMIDE]

Source: ChEMBL document CHEMBL1268994, “Synthesis and molecular modelling studies of prenylated pyrazolines as MAO-B inhibitors” (Bioorg Med Chem Lett, 2010)
